This passage reports melting point results from patent US20080051418A1, “Arylalkanoic Acid Derivative” (priority 2004, published 2008).

Molecules are shown by their SMILES.

As to `CCn1cc(CC(=O)O)c(OCCCc2ccc(Cc3ccccn3)cc2OC(C)C)n1` [Example 126, (3-{3-[2-isopropoxy-4-(pyridin-2-ylmethyl)phenyl]propoxy}-1-ethyl-1H-pyrazol-4-yl)acetic acid], the melting point lay within 97 to 98 °C.
As for `COCCOc1ccc(CCCOc2cc(CCC(=O)O)n(C)n2)c(Oc2ncc(C(F)(F)F)cc2Cl)c1` [Example 148, 3-(3-{3-[2-{[3-chloro-5-(trifluoromethyl)pyridin-2-yl]oxy}-4-(2-methoxyethoxy)phenyl]propoxy}-1-methyl-1H-pyrazol-5-yl)propanoic acid], the figure is 114 to 115 °C.
To `COc1cccc(CC(=O)O)c1OCc1cc(OC(C)C)nn1Cc1ccc2ccccc2n1` [Example 8, (2-{[3-isopropoxy-1-(quinolin-2-ylmethyl)-1H-pyrazol-5-yl]methoxy}-3-methoxyphenyl)acetic acid] belongs 129 to 130 °C.
To `COc1cccc(CC(=O)O)c1OCc1cc(OC(C)C)nn1Cc1ccc(Cl)cc1Cl` [Example 50, (2-{[1-(2,4-dichlorobenzyl)-3-isopropoxy-1H-pyrazol-5-yl]methoxy}-3-methoxyphenyl)acetic acid] belongs 127 to 128 °C; to `Cc1cccc(CC(=O)O)c1OCCCc1cc(OC(C)C)nn1Cc1ccc(Cl)cc1Cl` [Example 24, (2-{3-[1-(2,4-dichlorobenzyl) -3-isopropoxy-1H-pyrazol-5-yl]propoxy}-3-methylphenyl)acetic acid], 70 to 71 °C; to `CCOc1nn(Cc2ccc(Cl)cc2Cl)cc1CCCOc1nn(-c2ccccc2)cc1CCC(=O)O` [Example 193, 3-(3-{3-[1-(2,4-dichlorobenzyl)-3-ethoxy-1H-pyrazol-4-yl]propoxy}-1-phenyl-1H-pyrazol-4-yl)propanoic acid], 114 to 118 °C.
As to `CC(C)Oc1ccc(CCCOc2cc(CCC(=O)O)n(C)n2)c(OCc2ccc(C(F)(F)F)cc2)c1` [Example 167, 3-{3-[3-(4-isopropoxy-2-{[4-(trifluoromethyl)benzyl]oxy}phenyl)propoxy]-1-methyl-1H-pyrazol-5-yl}propanoic acid], the melting point was in the range of 88 to 89 °C.
As for `CCOc1ccc(CCCOc2c(CC(=O)O)cccc2OC)c(Oc2ccc(Cl)cc2Cl)n1` [Example 134, (2-{3-[2-(2,4-dichlorophenoxy)-6-ethoxypyridin-3-yl]propoxy}-3-methoxyphenyl)acetic acid], the figure is 89 to 91 °C; as for `COc1cc(CCCOc2c(CC(=O)O)cccc2OC)n(Cc2ccc(Cl)cc2Cl)n1` [Example 28, (2-{3-[1-(2,4-dichlorobenzyl)-3-methoxy-1H-pyrazol-5-yl]propoxy}-3-methoxyphenyl)acetic acid], 111 to 112 °C; as for `CC(C)Oc1cc(COc2cc(CCC(=O)O)n(C)n2)cc(COc2ccc(Cl)cc2Cl)c1` [Example 194, 3-[3-({3-[(2,4-dichlorophenoxy)methyl]-5-isopropoxybenzyl}oxy)-1-methyl-1H-pyrazol-5-yl]propanoic acid], 105 to 106 °C.
To `CCc1cnn(CC(=O)O)c1OCCn1cc(C(=O)NCc2ccc(C(F)(F)F)cc2)c(OC(C)C)n1` [Example 185, (4-ethyl-5-{2-[3-isopropoxy-4-({[4-(trifluoromethyl)benzyl]amino}carbonyl)-1H-pyrazol-1-yl]ethoxy}-1H-pyrazol-1-yl)acetic acid] belongs 183 to 184 °C.
To `CC(C)Oc1ccc(CCCCOc2cc(CCC(=O)O)n(C(C)C)n2)c(Oc2ncc(C(F)(F)F)cc2Cl)c1` [Example 159, 3-{3-[4-(2-{[3-chloro-5-(trifluoromethyl)pyridin-2-yl]oxy}-4-isopropoxyphenyl)butoxy]-1-isopropyl-1H-pyrazol-5-yl}propanoic acid] belongs 99.5 to 100.5 °C; to `CC(C)c1ncc(CCCOc2nn(C)cc2CC(=O)O)c(Oc2ccc(Cl)cc2Cl)n1` [Example 128, (3-{3-[4-(2,4-dichlorophenoxy)-2-isopropylpyrimidin-5-yl]propoxy}-1-methyl-1H-pyrazol-4-yl)acetic acid], 107 to 108 °C; to `CC(C)Oc1cc(CCCOc2ncccc2CC(=O)O)n(Cc2ccc(Cl)cc2OC(C)C)n1` [Example 94, (2-{3-[1-(4-chloro-2-isopropoxybenzyl)-3-isopropoxy-1H-pyrazol-5-yl]propoxy}pyridin-3-yl)acetic acid], 82 to 84 °C.
In the case of `CCOc1nn(Cc2ccc(Cl)cc2Cl)cc1CCCOc1cc(CCC(=O)O)n(Cc2ccccc2)n1` [Example 182, 3-(1-benzyl-3-{3-[1-(2,4-dichlorobenzyl)-3-ethoxy-1H-pyrazol-4-yl]propoxy}-1H-pyrazol-5-yl)propanoic acid], the melting point was 84 to 85 °C.
As for `CCn1nc(OCCCc2ccc(OC(C)C)cc2OCc2ccc(Cl)cc2Cl)cc1CCC(=O)O` [Example 163, 3-[3-(3-{2-[(2,4-dichlorobenzyl)oxy]-4-isopropoxyphenyl}propoxy)-1-ethyl-1H-pyrazol-5-yl]propanoic acid], the figure is 110 to 111 °C.
As for `CC(C)Oc1ccc(CCCCOc2cc(CCC(=O)O)n(C)n2)c(Oc2ncc(C(F)(F)F)cc2Cl)c1` [Example 155, 3-{3-[4-(2-{[3-chloro-5-(trifluoromethyl)pyridin-2-yl]oxy}-4-isopropoxyphenyl)butoxy]-1-methyl-1H-pyrazol-5-yl}propanoic acid], the figure is 156 to 157 °C; as for `CC(C)Oc1cc(CCCOc2c(CC(=O)O)ccc3ccccc23)n(Cc2ccc(Cl)cc2Cl)n1` [Example 87, (1-{3-[1-(2,4-dichlorobenzyl)-3-isopropoxy-1H-pyrazol-5-yl]propoxy}-2-naphthyl)acetic acid], 96 to 98 °C; as for `COCCOc1cc(Oc2ccc(C(F)(F)F)cn2)ccc1CCCOc1cc(CCC(=O)O)n(C)n1` [Example 154, 3-{3-[3-(2-(2-methoxyethoxy)-4-{[5-(trifluoromethyl)pyridin-2-yl]oxy}phenyl)propoxy]-1-methyl-1H-pyrazol-5-yl}propanoic acid], 109.5 to 110.5 °C.
As for `CCc1cccc(CC(=O)O)c1OCCn1cc(C(=O)NCc2ccc(C(F)(F)F)cc2)c(OC(C)C)n1` [Example 184, (3-ethyl-2-{2-[3-isopropoxy-4-({[4-(trifluoromethyl)benzyl]amino}carbonyl)-1H-pyrazol-1-yl]ethoxy}phenyl)acetic acid], the figure is 110 to 111 °C.
For the compound `CC(C)c1ncc(CCCOc2nn(Cc3ccccc3)cc2CC(=O)O)c(Oc2ccc(Cl)cc2Cl)n1` [Example 129, (3-{3-[4-(2,4-dichlorophenoxy)-2-isopropylpyrimidin-5-yl]propoxy}-1-benzyl-1H-pyrazol-4-yl)acetic acid], the melting point lay in the range of 98 to 99 °C.
As for `COc1cccc(CC(=O)O)c1OCc1cc(OCc2ccc3ccccc3n2)n(C(C)C)n1` [Example 9, (2-{[1-isopropyl-5-(quinolin-2-ylmethoxy)-1H-pyrazol-3-yl]methoxy}-3-methoxyphenyl)acetic acid], the figure is 84 to 85 °C.
As to `CC(C)Oc1cc(CCCOc2nn(C)cc2CC(=O)O)n(Cc2ccc(Cl)cc2Cl)n1` [Example 32, (3-{3-[1-(2,4-dichlorobenzyl)-3-isopropoxy-1H-pyrazol-5-yl]propoxy}-1-methyl-1H-pyrazol-4-yl)acetic acid], the melting point is 96 to 97 °C.
